{"source": "patent US20240285670A1", "about": "“THERAPEUTIC TREATMENT OF TUMORS BY BLOCKING THE HEME SYNTHESIS-EXPORT AXIS” (Università degli Studi di Torino, priority 2021, published 2024)", "format_in_all_cases": "cell-based, human", "key": {"SH-SY5Y cells [1]": {"tested_on": "SH-SY5Y cells", "test": "Activity of mitochondrial ETC complexes I-IV in SHSY-5Y cells", "details": "FLVCR1a-silenced vs scramble shRNA SH-SY5Y cells", "text": "(§1) Results were expressed as nmol NAD*/min/mg mitochondrial protein for complex I, nmol reduced cytochrome c/min/mg mitochondrial protein for complexes II-III, nmol oxidized cytochrome c/min/mg mitochondrial protein for complex IV. Data represent mean±SEM, n=3. For statistical analyses, an unpaired Student's t-test was used; *=p<0.05, **=p<0.01, *=p<0.001. […] Results are expressed as nmol/mg mitochondrial proteins. Data represent mean±SEM, n=3. For statistical analyses, an unpaired Student's t-test was used; *=p<0.05. […] Results are expressed as pmol CO2/h/mg protein. Data represent mean±SEM, n=3. For statistical analyses, an unpaired Student's t-test was used; **=p<0.01. […] Results were expressed as nmol NAD*/min/mg mitochondrial protein for complex I, nmol reduced cytochrome c/min/mg mitochondrial protein for complexes II-III, nmol oxidized cytochrome c/min/mg mitochondrial protein for complex IV. […] Results are expressed as nmol/mg mitochondrial proteins. […] Results are expressed as pmol CO2/h/mg protein. […] (H) TCA cycle enzymes activities are reported in boxes and expressed as mU/mg mitochondrial proteins. […] Results were expressed as nmol NAD^+/min/mg mitochondrial protein for complex I, nmol reduced cytochrome c/min/mg mitochondrial protein for complexes II-III, nmol oxidized cytochrome c/min/mg mitochondrial protein for complex IV. […] Results are expressed as nmol/mg mitochondrial proteins. […]"}, "SH-SY5Y cells [2]": {"tested_on": "SH-SY5Y cells", "test": "TCA cycle flux in SHSY-5Y cells", "details": "FLVCR1a-silenced vs scramble shRNA SH-SY5Y cells", "text": "as §1"}, "SKCO1 cells": {"tested_on": "SKCO1 cells", "test": "Mitochondrial ATP levels in SKCO1 cells", "details": "FLVCR1a-silenced vs scramble shRNA SKCO1 cells", "text": "(A, C, E) Activities of the mitochondrial electron transport chain complexes I-IV. FLVCR1a-silenced Caco2 (A), SKCO1 (C) or C80 cells (E) are compared to cells expressing a scramble shRNA. Results were expressed as nmol NAD^+/min/mg mitochondrial protein for complex I, nmol reduced cytochrome c/min/mg mitochondrial protein for complexes II-III, nmol oxidized cytochrome c/min/mg mitochondrial protein for complex IV. Data represent mean±SEM, n=3. For statistical analyses, an unpaired Student's t-test was used; *=p<0.05, **=p<0.01. (B, D, F) Mitochondrial ATP levels measured by a bioluminescent assay kit. FLVCR1a-silenced Caco2 (B), SKCO1 (D) or C80 cells (F) are compared to cells expressing a scramble shRNA. Results are expressed as nmol/mg mitochondrial proteins. […] Results were expressed as nmol NAD^+/min/mg mitochondrial protein for complex I, nmol reduced cytochrome c/min/mg mitochondrial protein for complexes II-III, nmol oxidized cytochrome c/min/mg mitochondrial protein for complex IV. […] (H) Mitochondrial ATP levels measured by a bioluminescent assay kit in Caco2 cells overexpressing FLVCR1a (indicated as FLVCR1a+) compared to cells stably transduced with an empty vector. Results are expressed as nmol/mg mitochondrial proteins. […]\nATP levels in mitochondria extracts were assessed by the ATP Bioluminescent Assay Kit (Sigma-Aldrich, St. Louis, MO USA, catalog n° FLAA). […]"}}}
{"substance": "FLVCR1a shRNA: shRNA specifically down-regulating FLVCR1a without targeting FLVCR1b; pLKO.1 lentiviral clone TRCN0000059599, antisense SEQ ID No.: 2 (antisense TTGCTAATGATGCTGTACTGG; sense CCAGTACAGCATCATTAGCAA)", "values": [{"measurement": "activity of ETC complexes", "setting": "SH-SY5Y cells [1]", "result": "enhanced activity of ETC complexes"}, {"measurement": "TCA cycle flux", "setting": "SH-SY5Y cells [2]", "result": "increased TCA cycle flux"}, {"measurement": "mitochondrial ATP levels", "setting": "SKCO1 cells", "result": "increased"}]}
